Assay results: patent US20210171948A1, “COMPOSITIONS AND METHODS FOR TARGETING GLYPICAN-2 IN THE TREATMENT OF CANCER” (Shepherd Therapeutics, Inc., priority 2019, published 2021)
d = 2'-deoxy (DNA); r = 2'-OH (RNA)

Assays:
SKNAS cells [1] = experiment: Cisplatin IC50 in siRNA-transfected cells, Cell Titer Glo 2.0 viability (Example 5); format: cell-based
Procedure: (§1) GPC2 mRNA was reduced using the indicated siRNAs and changes in cell viability were assessed in multiple cancer cell lines, in combination with Cisplatin treatment. Cells were transfected with either a scrambled control siRNA or with GPC2 siRNA sequences 3 or 5 from Table 7 using the RNAiMAX Lipofectamine kit (Invitrogen, Carlsbad, Calif.), as previously described, in either in 96 well (for viability assays) or 6 well format (for total RNA). Cisplatin was added at increasing concentrations (0 to 30 uM) to transfected cells at 24 hours post transfection. Following a 72 hour incubation period, cell viability was measured using Cell Titer Glo 2.0. Total RNA samples were also isolated to measure knockdown efficiency.

TC71 cells = experiment: as above; format: cell-based
Procedure: as §1

RH30 cells = experiment: as above; format: cell-based
Procedure: as §1

TC32 cells = experiment: as above; format: cell-based
Procedure: as §1

RH41 cells = experiment: as above; format: cell-based
Procedure: as §1

SK-N-BE2 cells = experiment: as above; format: cell-based
Procedure: as §1

KELLY cells [2] = experiment: as above; format: cell-based
Procedure: as §1

GPC2 protein = GPC2 protein expression by flow cytometry of immunostained cells after siRNA transfection; format: cell-based, human
Procedure: The extent of GPC2 mRNA reduction (knockdown) and corresponding protein level expression changes were assessed in three neuroblastoma cell lines following siRNA knockdown of GPC2. The CHP212 neuroblastoma cell line (FIG. 5A and FIG. 5D), the SH-SY5Y neuroblastoma cell line (FIG. 5B and FIG. 5E) and the CHLA90 neuroblastoma cell line (FIG. 5C and FIG. 5F) were transfected with GPC2 siRNA sequences 5 and 7 from Table 7 and a scrambled control siRNA using the RNAiMAX Lipofectamine kit (Invitrogen, Carlsbad, Calif.) as previously described. Following a 24, 48, or 72 hour incubation period, cells were washed and total RNA was isolated for measuring GPC2 mRNA expression. For protein analysis, cells were fixed, immunostained using an antibody against GPC2 protein, protein expression was measured via flow cytometry. As shown, GPC2 mRNA knockdown was observed beginning at the 24 hr time point and lasted for at least 72 hours. GPC2 protein expression started to decrease at the 48 hr time point.

SKNAS cells [3] = experiment: Etoposide IC50 in siRNA-transfected cells, Cell Titer Glo 2.0 viability (Example 9); format: cell-based
CHLA-172 cells = experiment: as above; format: cell-based
CHLA-136 cells = experiment: as above; format: cell-based; conditions: CHLA-136 cells transfected with the labelled siRNA; etoposide added 24 hours post transfection, 72 hour incubation
KELLY cells [4] = experiment: as above; format: cell-based
GPC2 mRNA [5] = experiment: GPC2 mRNA knockdown in cell lines of the cisplatin experiment (Example 5); format: cell-based, human
Procedure: as §1

GPC2 mRNA [6] = experiment: GPC2 mRNA knockdown in multiple cancer cell lines, 96 hour (Example 3); format: cell-based, human; conditions: 96 hour incubation
Procedure: siRNAs 1-5 from Table 7 were diluted to 40 nM in OptiMEM media and mixed in a 1:3 ratio (weight by volume) with RNAiMAX. This was incubated for 15 minutes at room temperature and dispensed onto cells plated in a 6 well tissue culture plate. Total RNA samples were collected at either 72 hours post transfection to compare knockdown efficiency (FIG. 2A), or at 24, 48, 72 or 96 hours post transfection to determine the extent of GPC2 mRNA knockdown over time (FIG. 2B). Expression levels of mRNA of GPC2 were measured in these samples using primers specific for GPC2 obtained commercially from Thermofisher (Carlsbad, Calif.) and standard qPCR technique.
GPC2 mRNA knockdown and changes in cell viability were assessed in multiple cancer cell lines. Cells were transfected with either a scrambled control siRNA or with GPC2 siRNA sequence 3 or sequence 5 from Table 7 using the RNAiMAX Lipofectamine kit (Invitrogen, Carlsbad, Calif.) as previously described in Example 2, either in 96 well format (for viability assays) or 6 well format (for knockdown assessment). Following a 96 hour incubation period, cells were washed and the viability measurement was assessed using Cell Titer Glo 2.0. Total RNA was isolated from the 6 well plate samples to determine knockdown efficiency.

[7] = GIST-T1 (Gastrointestinal Stromal)

GPC2 siRNA 5: siRNA duplex: sense CUCAGUAGCCCAGCACUCU[dT][dT] (SEQ ID NO: 211), anti-sense AGAGUGCUGGGCUACUGAG[dT][dT] (SEQ ID NO: 212) (sense CUCAGUAGCCCAGCACUCUTT; antisense AGAGUGCUGGGCUACUGAGTT; sugars from the 5' end r19 d2, backbone not given here; listed as Homo sapiens)
Data Summary: effect of knockdown on sensitivity to cisplatin (SKNAS cells [1]; SKNAS): increases sensitivity to | IC50 (SKNAS cells [1]; SKNAS cells transfected with the labelled siRNA, cisplatin added 24 hours post transfection, 72 hour incubation): 9000 nM | Data Summary: effect of knockdown on sensitivity to cisplatin (TC71 cells; TC71): does not increase | IC50 (TC71 cells; TC71 cells transfected with the labelled siRNA, cisplatin added 24 hours post transfection, 72 hour incubation): 1400 nM | Data Summary: effect of knockdown on sensitivity to cisplatin (RH30 cells; RH30): does not increase | IC50 (RH30 cells; RH30 cells transfected with the labelled siRNA, cisplatin added 24 hours post transfection, 72 hour incubation): 2500 nM | Data Summary: effect of knockdown on sensitivity to cisplatin (TC32 cells; TC32): does not increase | IC50 (TC32 cells; TC32 cells transfected with the labelled siRNA, cisplatin added 24 hours post transfection, 72 hour incubation): 1200 nM | Data Summary: effect of knockdown on sensitivity to cisplatin (RH41 cells; RH41): increases sensitivity to | IC50 (RH41 cells; RH41 cells transfected with the labelled siRNA, cisplatin added 24 hours post transfection, 72 hour incubation): 1000 nM | Data Summary: effect of knockdown on sensitivity to cisplatin (SK-N-BE2 cells; SK-N-BE2): increases sensitivity to | IC50 (SK-N-BE2 cells; SK-N-BE2 cells transfected with the labelled siRNA, cisplatin added 24 hours post transfection, 72 hour incubation): 3000 nM | Data Summary: effect of knockdown on sensitivity to cisplatin (KELLY cells [2]; KELLY): increases sensitivity to | IC50 (KELLY cells [2]; KELLY cells transfected with the labelled siRNA, cisplatin added 24 hours post transfection, 72 hour incubation): 2500 nM | GPC2 protein expression (Mean Fluorescence (FL1) Intensity) (GPC2 protein; CHLA90 cells, at 72 hours (FIG. 5F)): Reduced GPC2 protein expression | Time point at which GPC2 protein expression started to decrease (GPC2 protein; CHP212, SH-SY5Y and CHLA90 neuroblastoma cell lines): 48 h | GPC2 protein expression (Mean Fluorescence (FL1) Intensity) (GPC2 protein; CHP212 cells, at 48 and 72 hours (FIG. 5D)): Reduced GPC2 protein expression | GPC2 protein expression (Mean Fluorescence (FL1) Intensity) (GPC2 protein; SH-SY5Y cells, at 48 and 72 hours (FIG. 5E)): Reduced GPC2 protein expression | Data Summary: effect of knockdown on sensitivity to etoposide (SKNAS cells [3]; SKNAS): increases sensitivity to etoposide | IC50 (SKNAS cells [3]; SKNAS cells transfected with the labelled siRNA, etoposide added 24 hours post transfection, 72 hour incubation): 20 nM | Data Summary: effect of knockdown on sensitivity to etoposide (CHLA-172 cells; CHLA-172): increases sensitivity to etoposide | IC50 (CHLA-172 cells; CHLA-172 cells transfected with the labelled siRNA, etoposide added 24 hours post transfection, 72 hour incubation): 900 nM | IC50 (CHLA-136 cells): 80 nM | Data Summary: effect of knockdown on sensitivity to etoposide (KELLY cells [4]; KELLY): increases sensitivity to etoposide | IC50 (KELLY cells [4]; KELLY cells transfected with the labelled siRNA, etoposide added 24 hours post transfection, 72 hour incubation): 60 nM | % GPC2 knockdown (GPC2 mRNA [5]; CHLA-90 (Neuroblastoma)): 55% | % GPC2 knockdown (GPC2 mRNA [5]; CHLA-136 (Neuroblastoma)): 35% | % GPC2 knockdown (GPC2 mRNA [5]; CHLA-172 (Neuroblastoma)): 8% | % GPC2 knockdown (GPC2 mRNA [5]; CHP212 (Neuroblastoma)): 70% | % GPC2 knockdown (GPC2 mRNA [5]; COV362 (Ovarian cancer)): 89% | % GPC2 knockdown (GPC2 mRNA [5]; [7]): 75% | % GPC2 knockdown (GPC2 mRNA [5]; KELLY (Neuroblastoma)): 75% | % GPC2 knockdown (GPC2 mRNA [5]; RH30 (Rhabdomyosarcoma)): 86% | % GPC2 knockdown (GPC2 mRNA [5]; RH41 (Rhabdomyosarcoma)): 70% | % GPC2 knockdown (GPC2 mRNA [5]; SH-SY5Y (Neuroblastoma)): 75% | % GPC2 knockdown (GPC2 mRNA [5]; SK-N-BE2 (Neuroblastoma)): 68% | % GPC2 knockdown (GPC2 mRNA [5]; SKNAS (Neuroblastoma)): 70% | % GPC2 knockdown (GPC2 mRNA [5]; SNU16 (Gastric carcinoma)): 52% | % GPC2 knockdown (GPC2 mRNA [5]; TC32 (Ewing's sarcoma)): 75% | % GPC2 knockdown (GPC2 mRNA [5]; TC71 (Ewing's sarcoma)): 60% | % GPC2 knockdown (GPC2 mRNA [5]; TOV112D (Ovarian cancer)): 86% | % GPC2 knockdown (GPC2 mRNA [6]; CHP212 (Neuroblastoma)): 65% | % GPC2 knockdown (GPC2 mRNA [6]; COV362 (Ovarian Carcinoma)): 79% | % GPC2 knockdown (GPC2 mRNA [6]; [7]): 76% | % GPC2 knockdown (GPC2 mRNA [6]; IMR32 (Neuroblastoma)): 25% | % GPC2 knockdown (GPC2 mRNA [6]; MCF7 (Breast)): 82% | % GPC2 knockdown (GPC2 mRNA [6]; RH30 (Rhabdomyosarcoma)): 83% | % GPC2 knockdown (GPC2 mRNA [6]; RH41 (Rhabdomyosarcoma)): 60% | % GPC2 knockdown (GPC2 mRNA [6]; SKNAS (Neuroblastoma)): 44% | % GPC2 knockdown (GPC2 mRNA [6]; SNU16 (Gastric)): 25% | % GPC2 knockdown (GPC2 mRNA [6]; TC32 (Ewing's Sarcoma)): 57% | % GPC2 knockdown (GPC2 mRNA [6]; TC71 (Ewing's Sarcoma)): 33% | % GPC2 knockdown (GPC2 mRNA [6]; TOV112D (Ovarian Carcinoma)): 78% | GPC2 knockdown across the cell lines of Table 8 (GPC2 mRNA [6]; multiple cancer cell lines): GPC2 knockdown was observed in each cell line
